This passage reports IC50 results from paper PMC2248166, “Quantitative peptide binding motifs for 19 human and mouse MHC class I molecules derived using positional scanning combinatorial peptide libraries” (Immunome Research, 2008).

Where a SMILES comes first, the peptide text is derived from it.

What is called IC50 is the concentration that inhibits the measured activity by half. Read a low IC50 as inhibition by little substance.

The target of this test is HLA B*1503 (Homo sapiens, UniProt P01889, A329T/A93T/A95T/C349S/D201E/D98Y/E187L/E204Q/K202T/N87E/Q94N/R155S/R180L/S121R/S35A/V306I/V36M/Y140S/Y91S). Nature of the test: biochemical. The format is binding.
`CC[C@H](C)[C@H](NC(=O)[C@H](CC(C)C)NC(=O)[C@@H](NC(=O)[C@H](CO)NC(=O)[C@@H](NC(=O)[C@H](CCCCN)NC(=O)[C@H](C)N)[C@@H](C)O)[C@@H](C)O)C(=O)N[C@@H](Cc1ccccc1)C(=O)N[C@@H](Cc1ccccc1)C(=O)O` [3102.1088] (H-AKTSTLIFF-OH): it took 1.6 nM to reach half-maximal inhibition (IC50).

As for `CSCC[C@H](NC(=O)[C@H](CC(C)C)NC(=O)[C@H](CCSC)NC(=O)[C@@H](N)Cc1ccccc1)C(=O)N[C@@H](CCC(=O)O)C(=O)N[C@H](C(=O)N[C@@H](CCSC)C(=O)N[C@@H](Cc1ccccc1)C(=O)N[C@@H](Cc1ccccc1)C(=O)O)[C@@H](C)O` [3102.1089] (H-FMLMETMFF-OH), the IC50 is 0.19 nM. For `CC[C@H](C)[C@H](NC(=O)[C@@H](NC(=O)[C@@H](NC(=O)[C@H](C)NC(=O)[C@H](CCSC)NC(=O)[C@H](Cc1ccc(O)cc1)NC(=O)[C@H](C)NC(=O)[C@@H](N)CCCNC(=N)N)[C@@H](C)O)[C@@H](C)O)C(=O)N[C@@H](CC(C)C)C(=O)O` [3102.1091] (H-RAYMATTIL-OH) the value was 18 nM; for `CSCC[C@H](NC(=O)[C@H](C)NC(=O)[C@H](CC(C)C)NC(=O)[C@H](CO)NC(=O)[C@H](CCCCN)NC(=O)[C@@H](N)CCSC)C(=O)N[C@H](C(=O)N[C@@H](C)C(=O)N[C@@H](Cc1ccccc1)C(=O)O)[C@@H](C)O` [3102.1092] (H-MKSLAMTAF-OH), 0.18 nM; for `CC[C@H](C)[C@H](N)C(=O)N[C@@H](CCSC)C(=O)N[C@@H](C)C(=O)N[C@@H](CC(C)C)C(=O)N[C@H](C(=O)N[C@H](C(=O)N[C@@H](CO)C(=O)N[C@H](C(=O)N[C@@H](Cc1ccccc1)C(=O)O)[C@@H](C)CC)C(C)C)[C@@H](C)CC` [3102.1093] (H-IMALIVSIF-OH), 4.5 nM. For `CC[C@H](C)[C@H](NC(=O)[C@@H](NC(=O)[C@@H]1CCCN1C(=O)[C@H](CCC(=O)O)NC(=O)[C@H](CO)NC(=O)[C@H](CO)NC(=O)[C@H](CCSC)NC(=O)[C@@H](N)Cc1ccc(O)cc1)[C@@H](C)CC)C(=O)N[C@@H](Cc1ccccc1)C(=O)O` [3102.1094] (H-YMSSEPIIF-OH) the value was 0.3 nM; for `CC[C@H](C)[C@H](NC(=O)[C@@H](NC(=O)[C@H](CC(N)=O)NC(=O)[C@H](CCC(=O)O)NC(=O)[C@@H]1CCCN1C(=O)[C@H](CO)NC(=O)[C@H](C)NC(=O)[C@H](CCSC)NC(=O)[C@@H](N)Cc1ccccc1)C(C)C)C(=O)O` [3102.1095] (H-FMASPENVI-OH), 6.4 nM; for `CC[C@H](C)[C@H](NC(=O)[C@@H](NC(=O)CNC(=O)[C@H](CCC(=O)O)NC(=O)[C@@H]1CCCN1C(=O)[C@H](CCC(N)=O)NC(=O)[C@@H](N)CCCCN)C(C)C)C(=O)N[C@@H](CC(C)C)C(=O)N[C@@H](Cc1ccccc1)C(=O)O` [3102.1100] (H-KQPEGVILF-OH), 3.7 nM.

`C[C@@H](O)[C@H](NC(=O)[C@H](CO)NC(=O)CNC(=O)[C@H](CCCNC(=N)N)NC(=O)[C@H](CC(N)=O)NC(=O)CNC(=O)[C@@H](N)CO)C(=O)N[C@@H](CO)C(=O)N[C@@H](Cc1ccccc1)C(=O)O` [3102.1101] (H-SGNRGSTSF-OH) had an IC50 of 25 nM. `CC[C@H](C)[C@H](NC(=O)[C@H](CCSC)NC(=O)[C@H](CC(=O)O)NC(=O)[C@H](CC(N)=O)NC(=O)[C@@H](NC(=O)[C@H](CCSC)NC(=O)[C@H](CCC(N)=O)NC(=O)[C@@H](N)CCCNC(=N)N)C(C)C)C(=O)N[C@@H](Cc1ccccc1)C(=O)O` [3102.1102] (H-RQMVNDMIF-OH) yielded an IC50 of 1.3 nM. For `N=C(N)NCCC[C@H](NC(=O)[C@H](CC(=O)O)NC(=O)[C@H](CCCCN)NC(=O)[C@H](CCC(=O)O)NC(=O)[C@H](Cc1ccccc1)NC(=O)[C@H](CCC(N)=O)NC(=O)[C@@H](N)CCCNC(=N)N)C(=O)N[C@@H](CO)C(=O)N[C@@H](Cc1ccccc1)C(=O)O` [3102.1103] (H-RQFEKDRSF-OH) the value was 0.14 nM; for `CC[C@H](C)[C@H](N)C(=O)N[C@@H](CCC(N)=O)C(=O)N[C@H](C(=O)N[C@@H](CC(C)C)C(=O)N[C@@H](CC(N)=O)C(=O)NCC(=O)N[C@@H](CCCCN)C(=O)N[C@@H](Cc1c[nH]cn1)C(=O)N[C@@H](Cc1ccccc1)C(=O)O)[C@@H](C)O` [3102.1105] (H-IQTLNGKHF-OH), 11 nM.

Turning to `CC[C@H](C)[C@H](NC(=O)[C@@H](NC(=O)[C@H](CCC(=O)O)NC(=O)[C@H](CCC(=O)O)NC(=O)[C@H](CO)NC(=O)[C@H](CCSC)NC(=O)[C@@H](N)CC(C)C)[C@@H](C)O)C(=O)N[C@@H](CC(=O)O)C(=O)N[C@@H](Cc1ccccc1)C(=O)O` [3102.1106] (H-LMSEETIDF-OH), half-maximal inhibition (IC50) required 12 nM. For `CC[C@H](C)[C@H](NC(=O)[C@@H](NC(=O)[C@H](CCC(=O)O)NC(=O)[C@H](Cc1ccccc1)NC(=O)[C@H](Cc1ccccc1)NC(=O)[C@H](CCCCN)NC(=O)[C@@H](N)CC(N)=O)C(C)C)C(=O)N[C@@H](Cc1ccccc1)C(=O)N[C@@H](Cc1ccccc1)C(=O)O` [3102.1109] (H-NKFFEVIFF-OH) the value was 19 nM. Next, `CC(C)C[C@H](NC(=O)[C@H](Cc1ccc(O)cc1)NC(=O)[C@H](CCC(N)=O)NC(=O)[C@H](CO)NC(=O)[C@H](CCCNC(=N)N)NC(=O)[C@H](CC(N)=O)NC(=O)[C@H](CCC(N)=O)NC(=O)[C@@H](N)CCCNC(=N)N)C(=O)N[C@@H](Cc1ccccc1)C(=O)O` [3102.1112] (H-RQNRSQYLF-OH): 0.14 nM; `CC[C@H](C)[C@H](NC(=O)CNC(=O)[C@H](CC(C)C)NC(=O)[C@H](CCSC)NC(=O)[C@H](CO)NC(=O)[C@@H](N)Cc1ccccc1)C(=O)N[C@@H](Cc1c[nH]c2ccccc12)C(=O)N[C@@H](Cc1ccccc1)C(=O)N[C@@H](Cc1ccccc1)C(=O)O` [3102.1113] (H-FSMLGIWFF-OH): 28 nM; `CC(C)C[C@H](NC(=O)[C@H](Cc1ccccc1)NC(=O)[C@H](CO)NC(=O)[C@@H](N)CC(C)C)C(=O)N[C@@H](CO)C(=O)N[C@@H](CCCNC(=N)N)C(=O)N[C@H](C(=O)N[C@@H](Cc1ccccc1)C(=O)N[C@@H](Cc1ccccc1)C(=O)O)C(C)C` [3102.1115] (H-LSFLSRVFF-OH): 0.33 nM. In turn, `CC[C@H](C)[C@H](NC(=O)[C@H](CO)NC(=O)[C@@H](NC(=O)[C@H](CCC(N)=O)NC(=O)[C@H](CO)NC(=O)[C@H](CC(N)=O)NC(=O)[C@H](Cc1ccccc1)NC(=O)[C@H](CCCCN)NC(=O)[C@@H](N)Cc1ccccc1)C(C)C)C(=O)O` [3102.1116] (H-FKFNSQVSI-OH) showed an IC50 of 1.2 nM. For `CC(C)C[C@H](NC(=O)[C@H](CO)NC(=O)[C@H](CS)NC(=O)[C@@H](NC(=O)[C@H](Cc1ccccc1)NC(=O)[C@H](CCC(N)=O)NC(=O)[C@@H](N)CO)[C@@H](C)O)C(=O)N[C@@H](C)C(=O)N[C@H](C(=O)O)C(C)C` [3102.1117] (H-SQFTCSLAV-OH) the value was 1.5 nM; for `CC(C)[C@H](N)C(=O)N[C@@H](CCC(=O)O)C(=O)N[C@H](C(=O)N[C@@H](CCC(=O)O)C(=O)N1CCC[C@H]1C(=O)NCC(=O)N[C@@H](CO)C(=O)N[C@@H](CO)C(=O)N[C@@H](Cc1ccccc1)C(=O)O)C(C)C` [3102.1119] (H-VEVEPGSSF-OH), 1.7 nM; for `CC[C@H](C)[C@H](N)C(=O)N[C@@H](CCCCN)C(=O)N[C@@H](Cc1ccc(O)cc1)C(=O)N[C@@H](CCSC)C(=O)N[C@H](C(=O)NCC(=O)N[C@@H](CC(N)=O)C(=O)N[C@@H](Cc1ccccc1)C(=O)N[C@@H](CCSC)C(=O)O)[C@@H](C)CC` [3102.1120] (H-IKYMIGNFM-OH), 2.2 nM. Next, `CSCC[C@H](NC(=O)[C@H](CCCCN)NC(=O)[C@@H](N)CCCCN)C(=O)N[C@H](C(=O)N[C@@H](CS)C(=O)NCC(=O)N[C@@H](CCC(N)=O)C(=O)N1CCC[C@H]1C(=O)N[C@@H](CC(C)C)C(=O)O)[C@@H](C)O` [3102.1121] (H-KKMTCGQPL-OH): 1.5 nM. Next, `CC(C)[C@H](N)C(=O)N[C@@H](CCCCN)C(=O)N[C@H](C(=O)N[C@@H](CCCCN)C(=O)N[C@@H](CCC(=O)O)C(=O)N[C@@H](CCC(=O)O)C(=O)N[C@@H](CC(N)=O)C(=O)N[C@H](C(=O)N[C@@H](Cc1ccccc1)C(=O)O)[C@@H](C)O)C(C)C` [3102.1122] (H-VKVKEENTF-OH): 0.42 nM; `CC(C)[C@H](NC(=O)[C@H](CCC(N)=O)NC(=O)[C@@H](N)CCCNC(=N)N)C(=O)N[C@H](C(=O)N[C@@H](CC(=O)O)C(=O)N[C@@H](Cc1ccccc1)C(=O)N[C@@H](Cc1ccccc1)C(=O)N[C@@H](CCCCN)C(=O)N[C@@H](Cc1ccccc1)C(=O)O)C(C)C` [3102.1123] (H-RQVVDFFKF-OH): 0.34 nM; `CC(C)[C@H](NC(=O)[C@H](Cc1ccc(O)cc1)NC(=O)[C@H](CCC(N)=O)NC(=O)[C@@H](N)Cc1ccccc1)C(=O)N[C@@H](CO)C(=O)N[C@@H](Cc1ccc(O)cc1)C(=O)N[C@@H](CO)C(=O)N[C@@H](CC(N)=O)C(=O)N[C@@H](Cc1ccccc1)C(=O)O` [3102.1128] (H-FQYVSYSNF-OH): 0.26 nM.

In turn, `CC(C)C[C@H](NC(=O)[C@H](CO)NC(=O)[C@@H](NC(=O)[C@H](CCCNC(=N)N)NC(=O)[C@H](CO)NC(=O)[C@H](CC(C)C)NC(=O)[C@H](Cc1ccc(O)cc1)NC(=O)[C@H](CCC(N)=O)NC(=O)[C@@H](N)CO)C(C)C)C(=O)O` [3102.1130] (H-SQYLSRVSL-OH) came in with an IC50 of 0.24 nM.

In the case of `CC(C)C[C@H](NC(=O)[C@@H](NC(=O)[C@H](CC(N)=O)NC(=O)[C@@H]1CCCN1C(=O)[C@@H]1CCCN1C(=O)[C@H](CO)NC(=O)[C@@H](NC(=O)[C@H](CO)NC(=O)[C@@H](N)CO)C(C)C)C(C)C)C(=O)O` [3102.1131] (H-SSVSPPNVL-OH), the IC50 is 18 nM. Next, `CC[C@H](C)[C@H](NC(=O)[C@H](CCC(N)=O)NC(=O)[C@H](CC(N)=O)NC(=O)[C@H](CC(=O)O)NC(=O)[C@H](CCCNC(=N)N)NC(=O)[C@H](C)NC(=O)[C@@H](N)Cc1ccccc1)C(=O)N[C@@H](CO)C(=O)N[C@@H](Cc1ccccc1)C(=O)O` [3102.1132] (H-FARDNQISF-OH): 0.2 nM. Next, `CC(C)[C@H](NC(=O)[C@H](Cc1c[nH]cn1)NC(=O)[C@H](CCC(N)=O)NC(=O)CNC(=O)[C@H](Cc1ccccc1)NC(=O)[C@H](CS)NC(=O)[C@H](CC(N)=O)NC(=O)[C@H](C)NC(=O)[C@H](C)N)C(=O)O` [3102.1133] (H-AANCFGQHV-OH): 22 nM.
